Assay results reported in patent US20060069132A1, “Azolecarboxamide herbicides” (priority 2004, published 2006).

What was measured:
[1] = system: barnyardgrass; experiment: Test A pre-/postemergence herbicide test; type: in vivo, Echinochloa crus-galli
How it was run: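 Seeds sown in sandy loam received a preemergence directed soil spray of compound in non-phytotoxic solvent with surfactant; postemergence plants (2–10 cm, one- to two-leaf stage) were sprayed to runoff at the same time. After ~10 days in greenhouse, injury was rated visually versus untreated controls (0 = no effect, 100 = complete control).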

[2] = system: eastern black nightshade; experiment: Test C pre-/postemergence herbicide test; type: in vivo, Solanum ptycanthum; settings: preemergence
How it was run: (§1)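 Seeds were planted and sprayed preemergence with test chemicals in a non-phytotoxic solvent mixture containing surfactant; postemergence treatments went onto plants 2 to 18 cm tall (1- to 4-leaf stage). After 12 to 14 days in a greenhouse, injury was rated visually against untreated controls on a 0–100 scale.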

[3] = system: common ragweed; experiment: Test C pre-/postemergence herbicide test; type: in vivo, Ambrosia elatior; set-up: key to Plant response rating, Ragweed: 0 = no effect, 100 = complete control; settings: preemergence
How it was run: as §1

[4] = system: pigweed; experiment: Test C pre-/postemergence herbicide test; type: in vivo, Amaranthus retroflexus; settings: preemergence
How it was run: as §1

[5] = system: corn; experiment: Test C pre-/postemergence herbicide test; type: in vivo, Zea mays; settings: preemergence
How it was run: as §1

[6] = system: large crabgrass; experiment: Test C pre-/postemergence herbicide test; type: in vivo, Digitaria sanguinalis; settings: preemergence
How it was run: as §1

[7] = system: cocklebur; experiment: Test C pre-/postemergence herbicide test; type: in vivo, Xanthium strumarium
How it was run: as §1

[8] = system: velvetleaf; experiment: Test C pre-/postemergence herbicide test; type: in vivo, Abutilon theophrasti; settings: preemergence
How it was run: as §1

[9] = system: lambsquarters; experiment: Test C pre-/postemergence herbicide test; type: in vivo, Chenopodium album; settings: preemergence
How it was run: as §1

[10] = system: common (oilseed) sunflower; experiment: Test C pre-/postemergence herbicide test; type: in vivo, Helianthus annuus; settings: preemergence
How it was run: as §1

[11] = 125 g ai/ha, scale 0 (no effect) to 100 (complete control), visual, 12 to 14 days
[12] = 500 g ai/ha, scale 0 to 100 (0 no effect, 100 complete control), visual, 12 to 14 days

CCNC(=O)c1cccc(NC(=O)c2sc(C(C)(C)C)nc2CC)n1 [Compound 213]
Barnyardgrass plant response rating ([1]; Postemergence, 500 g ai/ha, 0 to 100 scale, 0 no effect, 100 complete control): 25
Plant response rating, Barnyardgrass ([1]; Postemergence, 2000 g ai/ha, 0 to 100 scale, 0 no effect, 100 complete control): 45
Barnyardgrass plant response rating ([1]; Preemergence, 2000 g ai/ha, visual rating, 0 to 100 scale (0 no effect, 100 complete control)): 70
Barnyardgrass plant response rating ([1]; preemergence, 500 g ai/ha, visual injury, 0 to 100 scale (0 no effect, 100 complete control)): 40
Plant response rating, Nightshade ([2]; 62 g ai/ha, scale 0 to 100): 100
Plant response rating, Nightshade [2, 11]: 100
Plant response rating, Nightshade ([2]; 250 g ai/ha, scale 0-100): 100
Plant response rating, Nightshade [2, 12]: 100
Plant response rating, Ragweed ([3]; 62 g ai/ha, scale 0 to 100): 0
Plant response rating, Ragweed [3, 11]: 0
Plant response rating, Ragweed ([3]; 250 g ai/ha, scale 0-100): 0
Plant response rating, Ragweed [3, 12]: 0
Plant response rating, Pigweed ([4]; 62 g ai/ha, scale 0 to 100): 80
Plant response rating, Pigweed [4, 11]: 100
Plant response rating, Pigweed ([4]; 250 g ai/ha, scale 0-100): 100
Plant response rating, Pigweed [4, 12]: 100
Plant response rating, Corn ([5]; 62 g ai/ha, scale 0 to 100): 0
Plant response rating, Corn [5, 11]: 0
Plant response rating, Corn ([5]; 250 g ai/ha, scale 0-100): 30
Plant response rating, Corn [5, 12]: 40
Plant response rating, Crabgrass, Large ([6]; 62 g ai/ha, scale 0 to 100): 0
Plant response rating, Crabgrass, Large [6, 11]: 50
Plant response rating, Crabgrass, Large ([6]; 250 g ai/ha, scale 0-100): 100
Plant response rating, Crabgrass, Large [6, 12]: 100
Plant response rating, Cocklebur ([7]; 250 g ai/ha, scale 0-100, preemergence): 100
Cocklebur plant response rating ([7]; Preemergence, 500 g ai/ha, scale 0 to 100, 0 no effect, 100 complete control): 100
Plant response rating, Velvetleaf ([8]; 62 g ai/ha, scale 0 to 100): 0
Plant response rating, Velvetleaf [8, 11]: 0
Plant response rating, Velvetleaf ([8]; 250 g ai/ha, scale 0-100): 0
Plant response rating, Velvetleaf [8, 12]: 0
Plant response rating, Lambsquarters ([9]; 62 g ai/ha, scale 0 to 100): 80
Plant response rating, Lambsquarters [9, 11]: 95
Plant response rating, Lambsquarters ([9]; 250 g ai/ha, scale 0-100): 100
Plant response rating, Lambsquarters [9, 12]: 100
Plant response rating, Sunflower ([10]; 62 g ai/ha, scale 0 to 100): 0
Plant response rating, Sunflower [10, 11]: 0
Plant response rating, Sunflower ([10]; 250 g ai/ha, scale 0-100): 0
Plant response rating, Sunflower [10, 12]: 0
